Columns and labels:
[1] = method code SF-AS, from DOI: 10.1016/0006-2952(93)90433-w, PMID: 8494536; details: pH 7.4
[2] = method code SF-NMR, from DOI: 10.1021/jm00157a023, PMID: 3806574
[3] = method code SF-HPLC, from Peips, M.; Sikk, P.; Aaviksaar, A. (1986). Hydrophobic interaction in the active sites of serine proteases from thermoactinomycetes. Org. React., 23(3)261-271.; details: pH 2.2
[4] = method code SF-AS, from DOI: 10.1016/s0021-9673(01)91572-9, PMID: 2376602; details: pH 7.0
[5] = method code SF-AS, from DOI: 10.1021/es00012a023, PMID: 22148214
[6] = method code SF, from DOI: 10.1016/0048-3575(88)90017-x
[7] = method code SF, from DOI: 10.3109/00498258709043934, PMID: 3564538
[8] = method code SF-GLC, from DOI: 10.1016/j.chemosphere.2004.08.061, PMID: 15519382
[9] = method code SF-AS, from DOI: 10.1021/acs.inorgchem.5b01238, PMID: 26280387
[10] = method code SF, from DOI: 10.1016/s0378-5173(98)00231-2
[11] = method code SF, from DOI: 10.1080/09553008714551831, PMID: 3497891; details: pH 7.4
[12] = method code SF-CR+DM, from DOI: 10.1021/ja01573a017; details: pH 6.5
[13] = method code SF-AS, from DOI: 10.1002/jps.2600611027, PMID: 5072421
[14] = method code SF-AS, from DOI: 10.1021/jm00297a026, PMID: 5441130
[15] = not given; remark: listed apart in the source
[16] = method code SF-HPLC, from DOI: 10.1007/s00216-006-0868-5, PMID: 17082876
[17] = method code SF-AS, from DOI: 10.1021/jm00075a005, PMID: 8246220; details: pH 7.4
[18] = method code SF, from DOI: 10.1016/0223-5234(94)90060-4; details: pH 7.4
[19] = method code SF-AS, from DOI: 10.1016/0006-2952(80)90068-4, PMID: 6775639
[20] = method code SF-HPLC, from DOI: 10.1023/a:1015862319927, PMID: 2062808; details: pH 7.4
[21] = not given; remark: listed apart in the source
[22] = method code SF-HPLC, from DOI: 10.1016/0378-5173(87)90096-2; details: pH 8.0
[23] = method code SF-HPLC, from DOI: 10.1248/cpb.41.694
[24] = not given; remark: listed apart in the source
[25] = method code SF, from DOI: 10.1021/bk-1995-0606.ch004
[26] = not given; remark: listed apart in the source

Cc1ccc2cc3ccccc3cc2c1
logD [1]: 5

CCOCCOCCOP(=O)(N1CC1)N1CC1
logP [2]: 0.1

COC(=O)[C@H](Cc1ccccc1)NC(C)=O
logD [3]: 0.92

Nc1nc(=O)n([C@H]2CC[C@@H](CO)O2)cc1F
logD [4]: -1.05

CC(C)OC(=O)CSc1ccccc1[N+](=O)[O-]
logP [5]: 2.76

CC(=O)OCN1C(=O)C(C)=C(C)C1=O
logP [6]: 0.65

CC(C)(C)NCC(O)COc1cccc2c1C[C@H](O)[C@H](O)C2 (stereo partly specified)
logP: 1.27

CCOC(=O)C(C(=O)CC)=C1SC=CS1
logP [7]: 2.9

Cn1c(Cl)c(Br)c(Br)c1-c1c(Br)c(Br)c(Br)n1C
logP [8]: 6.6

CSC(=S)C=C(O)c1ccc(O)cc1
logP [9]: 1.9

Nc1ccn([C@@H]2C=C(CO)[C@@H](O)[C@H]2O)c(=O)n1
logD [4]: -2.3

OCCCCCCc1ccccc1
logP [10]: 3.29

COC(=O)C(=Cc1cnc(S(C)(=O)=O)n1C)C(=O)OC
logD [11]: 0.49

CC(=O)C=Cc1ccccc1
logP: 2.13

Cc1ccc(NC(=O)c2ccco2)c(O)c1
logD [12]: 2.84

CCCCCCCc1ccncc1
logP [13]: 5

CCCCC(CO)n1cnc2c(N)ncnc21 (stereo unspecified)
logP [14]: 1.16

Oc1ccc(Cl)c2ccccc12
logD [12]: 4.1

CCSC(=S)C=C(O)c1cccc(O)c1
logP [9]: 1.73

O=P(N1CCOCCOCCOCCOCC1)(N1CC1)N1CC1
logP [2]: 0.12

CC(=O)OCN1Cc2ccccc2C1=O
logP [6]: 0.99

Cc1cc2ccccc2cc1C
logP [15]: 4.4

N=C(Nc1ccccc1)Nc1ccccc1
logP [16]: 2.85

O=C1CC2(CCCC2)C(=O)N1OCc1ccc(Cl)cc1
logD [17]: 2.53

COC(=O)C(=Cc1cnc(S(C)=O)n1C)C(=O)OC (stereo unspecified)
logD [11]: -0.43

CC(=O)OCC1OC(n2ccc(N)nc2=O)CS1 (stereo unspecified)
logD [18]: 0.51

CS(=O)CCCOc1ccc2ccccc2c1 (stereo unspecified)
logD [1]: 2.42

CC1=C(C)C(=O)C(C)=C(C)C1=O
logP [19]: 2.12

CCC(=O)OCC1OC(n2cc(I)c(=O)[nH]c2=O)CC1O (stereo unspecified)
logD [20]: 0.68

CCCCCCCCC1(c2ccncc2)CCC(=O)NC1=O (stereo unspecified)
logP [21]: 4.04

NC(=O)CCCCc1ccccn1
logD [22]: 0.4

Cc1cccc2ccccc12
logP [15]: 3.87

CN(C)C(=O)OCc1ccc(C(N)=O)cc1
logP [23]: 0.77

O=C1C(c2[nH]c3ccc(S(=O)(=O)O)cc3c2O)=Nc2ccc(S(=O)(=O)O)cc21
logP [19]: -2

Cc1cn([C@H]2C[C@H](O)[C@@H](CO)O2)c(=O)[nH]c1=O
logP [24]: -1.04

COP(=O)(OC)Oc1c(Cl)cc(C)cc1Cl
logP [25]: 2.66

CC(C=CC1=C(C)CCCC1(C)C)=CC=CC(C)=CC(=O)OCC1OC(n2ccc(N)nc2=O)CS1 (stereo unspecified)
logD [18]: 1.24

CCCNCc1ccc(C)cc1
logP [26]: 2.96

OCCCCCc1ccccc1
logP [10]: 2.89

O=S1(=O)OC(c2cc(Br)c(O)c(Br)c2)(c2cc(Br)c(O)c(Br)c2)c2ccccc21
logP [16]: 4.88

CCC(O)Cn1cnc2c(N)ncnc21 (stereo unspecified)
logP [14]: 0.14
